“And” between values parts separate entries of the source, which are not always exact repeats. Equal values may be shown once. Where a SMILES comes first, the peptide text is derived from it. [ ]: non-standard residue; d: D form. The star is where a group is joined. NH(TEMPO-4-yl) = CC1(C)CC(N*)CC(C)(C)N1[O]; Orn = NCCC[C@H](N)C(=O)O; Cbz = O=C(OCc1ccccc1)*; Boc = CC(C)(C)OC(=O)*

Consider two compounds from patent US8748369B2, “Use of targeted nitroxide agents in bone healing” (University of Pittsburgh-Of the Commonwealth System of …, priority 2009, dated 2014).

Data set [1] has as its system C57BL/6NHsd mice, tibial bone wounds. The data set can be described thus: Unicortical tibial bone wound healing with or without 20 Gy limb irradiation. In kind it is in vivo, mouse.
Data set [2] concerns mice exposed to total body irradiation. The data set can be described thus: Survival of mice after total body irradiation. In kind it is in vivo, mouse. The procedure: Mice received intraperitoneal injection of 10 mg. per kilogram of each of the chemicals indicated in FIG. 5, then 24 hours later received 9.75 Gy total body irradiation according to published methods. Mice were followed for survival according to IACUC regulations. […] (P=0.0008).
Groups of 15 mice received intraperitoneal injection of 10 mg. per kilogram of each indicated GS-nitroxide compound or carrier (Cremphora plus alcohol at 1 to 1 ratio, then diluted 1 to 10 in distilled water). Mice received 10 mg per kilogram intra-peritoneal injection 24 hours prior to total body irradiation. Control mice received radiation alone. […] (P=0.0005)

Data set [3] is described as follows: Topical and transdermal absorption through mouse skin (Bronaugh diffusion cell, EPR). In kind it is in vitro ADME. The settings on record: preliminary experiment. The source says: A small piece of skin (2 cm^2) was placed in a Bronaugh style flow-through diffusion cell system (PermeGear, Riegelsville, Pa.) (FIG. 22). It was then sandwiched between two pieces of the inert polymer Kel-F and clamped shut to prevent leakage. The epidermal side faces upward and is exposed to the donor solution (test solution), and the dermal side is in contact with the receptor fluid. The exposed surface area is 0.79 cm^2 (circular chamber with 1 cm diameter). The skin forms a water-tight seal in the flow through chamber so the receiving fluid (PBS+25% ethanol) on the dermal side will contain the XJB-5-125 only if it has penetrated through the skin. The receiver chamber was perfused with this buffer that then passes to a fraction collector via Teflon tubing. The PBS+25% ethanol was used because it is an effective sink for hydrophobic compounds and produces better in vitro/in vivo correlations than other receiver solutions. The skin was maintained at 32° C. by placing the chamber in a metal block heated via a recirculating water bath. […]
EPR spectra were recorded at 334.7 mT, center field; 20 mW, power; 0.079 mT, field modulation; 5 mT, sweep width; 400 and 4000, receiver gain; 0.1 s, time constraint. […]
Further, the total transdermal absorption after 24 hours and the level of XJB-5-125 present in the viable skin can be successfully measured using the techniques described herein. […]

Data set [4] can be described thus: log octanal/water (Ko/w) partition coefficient. In kind it is physicochemical. From the text:
A practical skin patch is planned for delivery of JP4-039 or other compounds delivered herein. The patch can be administered to a subject before, during or after exposure to radiation, including 24 hr or later after irradiation exposure of the subject. In preliminary studies, we sought to characterize the absorption/penetration of a topically applied representative GS-Nitroxide XJB-5-125 in mouse skin. XJB-5-125 was selected as a potential topical agent based on its ability to inhibit ROS generation, inhibit apoptosis and suppress oxidative damage to mitochondrial lipids. […] The physical properties of a chemical are critical to its ability to penetrate into and through the skin. Two important factors are the log octanal/water (Ko/w) partition coefficient and the molecular weight. For XJB-5-125, the log Ko/w=4.5 and molecular weight is 956. The lipophilicity “rule” is based on the need for a compound to partition out of the lipophilic stratum corneum and into the more hydrophilic epidermis and dermis.

The next data set has as its system mouse embryonic cells. The data set can be described thus: Gamma-irradiation dose survival curves of mouse embryonic cells. Conditions: 20 μM pre- (10-min) or post-treated (1-h). Type of data set: cell-based. The procedure:
Cells were plated in 35-mm Petri dishes with 2 ml culture medium at a density between 100 and 1000 cells per dish. Cells were treated with GS-nitroxide (XJB-5-125) either before (10-min) or after (1-h) γ-irradiation. XJB-5-125 was removed from the medium 4-h post-irradiation. Colonies were fixed and stained with 0.25% crystal violet and 10% formalin (35% v/v) in 80% methanol for 30 min after a 9-day incubation period, and those of ≧50 cells were counted as survivors. The surviving fraction was calculated as the plating efficiency of the samples relative to that of the control.
Cells were pre- (10-min) or post-treated (1-h) with XJB-5-125 (20 μM), which was removed after 4-h incubation period. The surviving fraction was calculated as the plating efficiency of the samples relative to that of the control. The data was fitted to a single-hit multitarget model using SigmaPlot 9.0 (Systat Software). Data presented are the mean±S.E. (n=3).

As to `CC(C)C[C@@H](/C=C/CC(=O)NC1CC(C)(C)N([O])C(C)(C)C1)NC(=O)OC(C)(C)C` [JP4-039, (S,E)-5-(tert-Butoxycarbonylamino)-7-methyloct-3-enoic acid-TEMPO], the “bone wound healing in the absence of RT” value in data set [1] (0 Gy) was “conferred more rapid healing”. Further, the “Hole Diameter, mean ± SEM” value in data set [1] (0 Gy, Day 7 post-drilling) was 1.02 ± 0.07 mm; in data set [1] (0 Gy, Day 14 post-drilling), 0.6±0.05 mm and 0.55±0.03 mm; in data set [1] (0 Gy, Day 21 post-drilling), 0.47 ± 0.04 mm; in data set [1] (0 Gy, Day 28 post-drilling) it was 0.23 ± 0.04 mm; in data set [1] (20 Gy, Day 7 post-drilling), 1.14 ± 0.04 mm; in data set [1] (20 Gy, Day 14 post-drilling) it was 0.92 ± 0.08 mm. Besides, the “Hole Diameter, mean ± SEM” value in data set [1] (20 Gy, Day 21 post-drilling) is 0.5±0.05 mm and 0.51±0.05 mm; in data set [1] (20 Gy, Day 28 post-drilling) it was 0.4±0.04 mm and 0.37±0.04 mm. The “RT-induced delay in osseus wound healing” value in data set [1] (given prior to 20 Gy RT) is recorded as “ameliorated this RT-induced delay”. The “histology: bone fill of wounds versus irradiated mice” value in data set [1] (pre-treated prior to irradiation) is recorded as “more bone fill”. Also, in data set [2] (10 mg per kilogram intraperitoneal 24 hours before irradiation), the “survival of mice exposed to 9.75 Gy total body irradiation” value is “significant increase in survival”. In addition, the “survival of mice exposed to 9.5 Gy total body irradiation” value in data set [2] (10 mg per kilogram intraperitoneal 24 hours prior to irradiation) is “increases survival”.

In the case of `CC(C)C[C@H](NC(=O)OC(C)(C)C)C(=O)N[C@H](Cc1ccccc1)C(=O)N1CCC[C@H]1C(=O)N[C@H](C(=O)N[C@@H](CCCNC(=O)OCc1ccccc1)C(=O)NC1CC(C)(C)N([O])C(C)(C)C1)C(C)C` [XJB-5-125] (Boc-L[dF]PV[Orn](Cbz)-{NH(TEMPO-4-yl)}), in data set [3], the “penetration of intact skin” value is recorded as “can sufficiently penetrate intact skin”. In data set [4], the “log Ko/w” value was 4.5. Also, the “radiation mitigation and protection (FIG. 15 survival curves)” value with mouse embryonic cells is “radiation mitigator as well as a protector”.
